Source: BindingDB's records for doi:10.1021/jm00128a028 (Roche Research Center, 1989)

Biological target: Thromboxane-A synthase (Rattus norvegicus) (UniProt P49430)
Experiment: Inhibitory activity to inhibit Inophore-induced arachidonic acid metabolism (inhibition of TXB2 formation) in rat

Sequence of Thromboxane-A synthase (Rattus norvegicus) (P49430 whole entry, looked up): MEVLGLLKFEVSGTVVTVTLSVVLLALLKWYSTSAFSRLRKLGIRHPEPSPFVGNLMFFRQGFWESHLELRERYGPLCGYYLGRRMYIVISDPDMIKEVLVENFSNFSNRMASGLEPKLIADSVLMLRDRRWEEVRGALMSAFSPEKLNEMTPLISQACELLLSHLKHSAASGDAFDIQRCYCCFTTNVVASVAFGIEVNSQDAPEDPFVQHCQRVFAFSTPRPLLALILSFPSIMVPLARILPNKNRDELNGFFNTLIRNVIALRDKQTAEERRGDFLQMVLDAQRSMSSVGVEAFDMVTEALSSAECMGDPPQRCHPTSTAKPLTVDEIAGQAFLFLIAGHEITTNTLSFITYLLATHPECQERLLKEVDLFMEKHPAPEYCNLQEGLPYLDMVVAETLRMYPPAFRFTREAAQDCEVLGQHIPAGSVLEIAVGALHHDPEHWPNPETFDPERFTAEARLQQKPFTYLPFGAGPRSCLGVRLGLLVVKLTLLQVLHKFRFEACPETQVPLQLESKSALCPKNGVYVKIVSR

Row | IC50 [nM] | Compound
1 | 2000 | CC(C)c1ccc2c(c1)c(SC(C)(C)C)c(CC(C)(C)C(=O)O)n2Cc1ccc(Cl)cc1
2 | 6000 | CCCc1c(OCCCCCOc2cc3c(cc2C(C)=O)CCC(C(=O)O)O3)ccc(C(C)=O)c1O (stereo not drawn) [Ro-23-3544]
3 | 100 | COc1ccc2c(c1)c(CC(=O)O)c(C)n2C(=O)c1ccc(Cl)cc1 [indometacin]
